Assay results taken from patent US4822804A, “5,6,7,-trinor-4,8-inter-m-phenylene 2-nor PGI2 derivatives and anti-ulcer, anti-thrombotic and anti-hypertensive pharmaceutical compositions containing them” (Toray Industries, Inc., priority 1981, dated 1989).
Converted amounts (≈) assume the structure as drawn.

Columns and labels:
gastric juice secretion = assay: Gastric juice secretion inhibition (Shay's method), subcutaneous; type: in vivo
Human Platelet = assay: Human platelet aggregation inhibiting activity (aggregating agent ADP); type: cell-based; conditions: human platelet rich plasma, read-out: ID50, human platelet aggregation inhibiting activity
Procedure: Blood was collected from healthy volunteers using a disposable syringe containing 3.8% sodium citrate from the saphnous vein. The blood was centrifuged for 10 minutes at 160×g. The resultant supernatant liquid was used as platelet rich plasma (PRP). Aggregation was induced by […] ADP (Adenosine diphosphate). The inhibition rate was calculated against a control aggregation of 100%.
ED50 (effective dose 50) is defined as the dosage required to produce a response in 50% of the subjects to whom the compound is given.

gastric mucous membrane = assay: Protection against gastric mucous membrane lesion due to alcohol (Robert's method); type: in vivo; conditions: rat, oral
Procedure: Gastric cytoprotection was measured according to the method of Robert et al (Gastroenterol 77, 433-443, 1979). The rats fasted overnight and were given a necrotizing agent (0.2N NaOH 1 ml/rat (Method A) or Absolute EtOH (Method B)) and killed one hour later for the examination of gastric lesions. The test drug was administered 30 minutes before the necrotizing agent. The length of the lesion was measured and expressed in terms of the ulcer index. The effect of the drug was expressed in terms of the inhibition rate against the ulcer index of a control animal.

[1] = Arterial blood pressure of anesthetized rats, intravenous injection; type: in vivo; conditions: rat, i.v., pentobarbital anesthesia
Procedure: Under pentobarbital anesthesia (50 mg/kg s.c.), a catheter was inserted into the carotid artery. The blood pressure was measured via a pressure transducer on a polygraph.

[2] = Diarrhoea inducing action, subcutaneous; type: in vivo; conditions: up to the dose of 3 mg/kg, rat
platelet rich plasma = assay: Anti-aggregatory effect in platelet rich plasma (Born's method; arachidonic acid, ADP and collagen); type: cell-based; conditions: PRP of man or rabbit, ADP, collagen
[3] = neutral aqueous solution; cited from earlier work
[4] = as recognized in prostaglandin E1 and E2; cited from earlier work

| Molecule | IC50 (Human Platelet) | blood pressure reducing activity relative to prostaglandin E1 [1] | duration of blood pressure reducing activity compared with prostaglandin E1 [1] | diarrhoea inducing action [2] | anti-aggregatory effect compared with prostaglandin E1 (platelet rich plasma) | other results |
| --- | --- | --- | --- | --- | --- | --- |
| 5,6,7-trinor-4,9-inter-m-phenylene-17,18,19,20-tetranor-16-m-chlorophenoxy PGI2 [Compound 65] |  |  |  |  |  | effective dose in inhibiting gastric juice secretion (gastric juice secretion): 0.3 to 1 mg/kg; effective dose relative to the dose of prostaglandin E2, gastric juice secretion inhibition (gastric juice secretion): 0.1-0.3 times |
| CCCOC[C@H](O)/C=C/[C@@H]1[C@H]2c3cccc(CCC(=O)O)c3O[C@H]2C[C@H]1O (relative stereo) [5,6,7-trinor-4,8-inter-m-phenylene-2,17,18,19,20-pentanor-16-propoxy PGI2] | 0.048 µg/mL (≈ 0.128 µM) |  |  |  |  |  |
| O=C(O)CCCc1cccc2c1O[C@H]1C[C@@H](O)[C@H](/C=C/[C@@H](O)COc3ccccc3)[C@@H]21 (relative stereo) [Compound 60, 5,6,7-trinor-4,8-inter-m-phenylene-17,18,19,20-tetranor-16-phenoxy PGI2] |  |  |  |  |  | effective dose relative to the dose of prostaglandin E2, gastric juice secretion inhibition (gastric juice secretion): 0.1-0.3 times |
| CCCOC[C@H](O)/C=C/[C@@H]1[C@H]2c3cccc(CCCC(=O)O)c3O[C@H]2C[C@H]1O (relative stereo) [Compound 66, 5,6,7-trinor-4,8-inter-m-phenylene-17,18,19,20-tertranor-16-propoxy PGI.su b.2] | 0.49 µg/mL (≈ 1.25 µM) |  |  |  |  |  |
| CCOCC(C)(C)[C@H](O)/C=C/[C@@H]1[C@H]2c3cccc(CCCC(=O)O)c3O[C@H]2C[C@H]1O (relative stereo) [Compound 76, 5,6,7-trinor-4,8-inter-m-phenylene-16,16-dimethyl-18,19,20-trinor-17-ethoxyPGI2] |  |  |  |  |  | effective dose relative to the dose of prostaglandin E2, gastric juice secretion inhibition (gastric juice secretion): 0.1-0.3 times; gastric mucous membrane protecting activity relative to prostaglandin E2 (gastric mucous membrane): 0.3-1 times |
| O=C(O)/C=C/Cc1cccc2c1O[C@H]1C[C@@H](O)[C@H](/C=C/[C@@H](O)c3ccccc3)[C@@H]21 (relative stereo) [Compound 97, 5,6,7-trinor-4,8-inter-m-phenylene-2,3-dehydro-16,17,18,19,20-pentanor-15-phenyl-PGI2] |  | 1-2 times | more prolonged duration | do not exhibit the diarrhoea inducing actions | comparable or stronger anti-aggregatory effect | effective dose relative to the dose of prostaglandin E2, gastric juice secretion inhibition (gastric juice secretion): 0.1-0.3 times; gastric mucous membrane protecting activity relative to prostaglandin E2 (gastric mucous membrane): 0.3-1 times |
| CCCCC(C)[C@H](O)/C=C/[C@@H]1[C@H]2c3cccc(CCC(=O)O)c3O[C@H]2C[C@H]1O (stereo partly drawn) [5,6,7-trinor-4,8-inter-m-phenylene-2-nor-16-methyl PGI2] | 0.011 µg/mL (≈ 0.0283 µM) |  |  |  |  |  |
| CCC[C@H](C)C[C@H](O)/C=C/[C@@H]1[C@H]2c3cccc(CCC(=O)O)c3O[C@H]2C[C@H]1O [5,6,7-trinor-4,8-inter-m-phenylene-2-nor-17(S)-methyl PGI2] | 0.0006 µg/mL (≈ 0.00154 µM) |  |  |  |  |  |
| CCCCC(C)[C@H](O)/C=C/[C@@H]1[C@H]2c3cccc(CCCC(=O)O)c3O[C@H]2C[C@H]1O (stereo partly drawn) [5,6,7-trinor-4,8-inter-m-phenylene-16-methyl PGI2] | 0.031 µg/mL (≈ 0.077 µM) |  |  |  |  |  |
| CCC[C@H](C)C[C@H](O)/C=C/[C@@H]1[C@H]2c3cccc(CCCC(=O)O)c3O[C@H]2C[C@H]1O [5,6,7-trinor-4,8-inter-m-phenylene-17(S)-methyl PGI2] | 0.005 µg/mL (≈ 0.0124 µM) |  |  |  |  |  |
| CCCCCCC(O)C#CC1C(O)CC2Oc3c(CCCC(=O)O)cccc3C21 (stereo not drawn) [Compound 6, 5,6,7,-trinor-4,8-inter-m-phenylene-13,14-didehydro-20-methyl-PGI2] |  | 1-2 times | more prolonged duration | do not exhibit the diarrhoea inducing actions | comparable or stronger anti-aggregatory effect |  |
| O=C(O)CCCc1cccc2c1OC1CC(O)C(C#CC(O)C3CCCCC3)C21 (stereo not drawn) [Compound 9, 5,6,7,-trinor-4,8-inter-m-phenylene-13,14-didehydro-15-cyclohexyl-16,17,18,19,20-pentanor PGI2] |  | 1-2 times | more prolonged duration | do not exhibit the diarrhoea inducing actions | comparable or stronger anti-aggregatory effect |  |
| COC(=O)CCCc1cccc2c1O[C@H]1C[C@@H](O)[C@H](C#CC(O)c3ccccc3)[C@@H]21 (stereo partly drawn) [Compound 19, 5,6,7-trinor-4,8-inter-m-phenylene-13,14-didehydro-15-phenyl-16,17,18,19,20-pentanor PGI2 methyl ester] |  | 1-2 times | more prolonged duration | do not exhibit the diarrhoea inducing actions | comparable or stronger anti-aggregatory effect | effective dose relative to the dose of prostaglandin E2, gastric juice secretion inhibition (gastric juice secretion): 0.1-0.3 times; gastric mucous membrane protecting activity relative to prostaglandin E2 (gastric mucous membrane): 0.3-1 times |
| CCCC(C)C[C@H](O)/C=C/[C@@H]1[C@H]2c3cccc(CCCC(=O)O)c3O[C@H]2C[C@H]1O (stereo partly drawn) [Compound 48, 5,6,7-trinor-4,8-inter-m-phenylene-17-α-methyl PGI2] |  | 1-2 times | more prolonged duration | do not exhibit the diarrhoea inducing actions | comparable or stronger anti-aggregatory effect |  |
| CCCC(C)CC(O)C=CC1C(O)CC2Oc3c(CCCC(=O)O)cccc3C21 (stereo not drawn) [Compound 49, 5,6,7-trinor-4,8-inter-m-phenylene-17-β-methyl PGI2] |  | 1-2 times | more prolonged duration | do not exhibit the diarrhoea inducing actions | comparable or stronger anti-aggregatory effect |  |
| CCCCC(C)C[C@H](O)/C=C/[C@@H]1[C@H]2c3cccc(CCCC(=O)O)c3O[C@H]2C[C@H]1O (stereo partly drawn) [Compound 55, 5,6,7-trinor-4,8-inter-m-phenylene-17-α-methyl-20-homo PGI2] |  | 1-2 times | more prolonged duration | do not exhibit the diarrhoea inducing actions | comparable or stronger anti-aggregatory effect |  |
| CCCCC[C@H](O)/C=C/[C@@H]1[C@H]2C/C(=C/CCCC(=O)O)O[C@H]2C[C@H]1O [PGI2, Prostaglandin I2] |  |  |  |  |  | stability in aqueous solution [3]: very unstable even in a neutral aqueous solution |
| CCCCC[C@H](O)/C=C/[C@H]1[C@H](O)CC(=O)[C@@H]1C/C=C\CCCC(=O)O [prostaglandin E2] |  |  |  |  |  | diarrhoea inducing action of reference prostaglandins [4]: diarrhoea inducing actions recognized |
